Measurements published in publication PMC12752606, “METTL10‐Mediated PIAS3 Methylation Links Purine Metabolism to Gastric Cancer Progression” (Advanced Science, 2025).

How the values were obtained:
SUV39H2 = SUV39H2 (Homo sapiens, UniProt Q9H5I1); experiment: Off-target methyltransferase profiling (MTase-Glo); type: biochemical
Experimental: (§1) To evaluate the off‐target effects of LZQ‐02‐023‐01 on methyltransferase activity, a panel of enzymes was assessed using the MTase‐Glo Methyltransferase Assay (Promega), following the manufacturer's instructions. The assay was performed by ICE Bioscience Inc. Briefly, LZQ‐02‐023‐01 was serially diluted 4‐fold in DMSO to generate a 10‐point concentration gradient, and the resulting solutions were dispensed into 384‐well white assay plates using an Echo acoustic liquid handler (Labcyte). Plates were centrifuged at 1000 rpm for 1 min to ensure even compound distribution. Following a 10‐min preincubation at 25 °C, 2 µL of a substrate solution containing S‐adenosylmethionine (SAM) and the specific methyltransferase substrate (Table S7, Supporting Information) was added to each well. After a brief centrifugation, plates were incubated at 25 °C for 180 min to allow the enzymatic methylation reaction to proceed. Subsequently, 1 µL of MTase‐Glo reagent was added, followed by centrifugation and incubation at 25 °C for 45 min. Then, 5 µL of MTase‐Glo detection solution was introduced into each well, and the plates were incubated for an additional 45 min at 25 °C after centrifugation.
(§2) Luminescence signals were directly proportional to methyltransferase activity, were recorded using a microplate reader (BMG LABTECH). Percent inhibition was calculated by normalizing luminescence intensities of compound‐treated wells to DMSO‐treated controls, and IC50 values were calculated using GraphPad Prism 8 software.

EZH2 [Y641F] = EZH2 [Y641F] (Homo sapiens, UniProt Q15910, Y641F); experiment: Off-target methyltransferase profiling (MTase-Glo); type: biochemical
Experimental: as §1, §2

SETD2 = SETD2 (Homo sapiens, UniProt Q9BYW2); experiment: Off-target methyltransferase profiling (MTase-Glo); type: biochemical
Experimental: as §1, §2

PRMT5+MTA = PRMT5+MTA (Homo sapiens, UniProt O14744); experiment: Off-target methyltransferase profiling (MTase-Glo); type: biochemical
Experimental: as §1, §2

PRMT5 = PRMT5 (Homo sapiens, UniProt O14744); experiment: Off-target methyltransferase profiling (MTase-Glo); type: biochemical
Experimental: as §1, §2

PRMT1 = PRMT1 (Homo sapiens, UniProt Q99873); experiment: Off-target methyltransferase profiling (MTase-Glo); type: biochemical
Chain of PRMT1 (Q99873 whole entry, species assumed): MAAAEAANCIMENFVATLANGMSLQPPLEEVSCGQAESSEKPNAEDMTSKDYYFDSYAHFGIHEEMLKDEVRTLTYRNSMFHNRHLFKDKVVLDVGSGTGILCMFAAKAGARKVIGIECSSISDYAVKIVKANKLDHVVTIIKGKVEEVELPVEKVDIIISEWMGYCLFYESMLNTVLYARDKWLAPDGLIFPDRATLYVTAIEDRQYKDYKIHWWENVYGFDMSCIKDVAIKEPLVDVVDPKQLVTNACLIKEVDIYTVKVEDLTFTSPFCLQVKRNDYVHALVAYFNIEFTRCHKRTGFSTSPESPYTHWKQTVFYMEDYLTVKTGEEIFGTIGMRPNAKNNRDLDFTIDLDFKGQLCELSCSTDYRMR
Experimental: as §1, §2

PRMT4 = PRMT4 (Homo sapiens, UniProt Q86X55); experiment: Off-target methyltransferase profiling (MTase-Glo); type: biochemical
Experimental: as §1, §2

DNMT1 = DNMT1 (Homo sapiens, UniProt P26358); experiment: Off-target methyltransferase profiling (MTase-Glo); type: biochemical
Experimental: as §1, §2

SETD1B = SETD1B (Homo sapiens, UniProt Q9UPS6); experiment: Off-target methyltransferase profiling (MTase-Glo); type: biochemical
Experimental: as §1, §2

EZH2 [Y641N] = EZH2 [Y641N] (Homo sapiens, UniProt Q15910, Y641N); experiment: Off-target methyltransferase profiling (MTase-Glo); type: biochemical
Experimental: as §1, §2

SUV39H1 = SUV39H1 (Homo sapiens, UniProt O43463); experiment: Off-target methyltransferase profiling (MTase-Glo); type: biochemical
Chain of SUV39H1 (O43463 whole entry, species assumed): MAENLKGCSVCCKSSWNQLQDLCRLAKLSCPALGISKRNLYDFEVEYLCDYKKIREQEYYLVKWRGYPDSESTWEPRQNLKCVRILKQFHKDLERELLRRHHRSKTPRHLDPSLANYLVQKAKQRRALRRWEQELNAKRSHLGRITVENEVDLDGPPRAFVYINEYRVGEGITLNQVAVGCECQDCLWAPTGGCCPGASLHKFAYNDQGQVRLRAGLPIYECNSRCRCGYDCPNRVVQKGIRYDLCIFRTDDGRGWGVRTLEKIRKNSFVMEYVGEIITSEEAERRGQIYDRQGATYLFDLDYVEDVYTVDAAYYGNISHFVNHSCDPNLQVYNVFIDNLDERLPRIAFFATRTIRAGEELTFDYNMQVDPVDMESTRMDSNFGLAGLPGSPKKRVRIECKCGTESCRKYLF
Experimental: as §1, §2

EZH2 = EZH2 (Homo sapiens, UniProt Q15910); experiment: Off-target methyltransferase profiling (MTase-Glo); type: biochemical
Experimental: as §1, §2

EZH2 [A677G] = EZH2 [A677G] (Homo sapiens, UniProt Q15910, A677G); experiment: Off-target methyltransferase profiling (MTase-Glo); type: biochemical
Experimental: as §1, §2

EZH2 [A738T] = EZH2 [A738T] (Homo sapiens, UniProt Q15910, A733T); experiment: Off-target methyltransferase profiling (MTase-Glo); type: biochemical
Experimental: as §1, §2

DOT1L = DOT1L (Homo sapiens, UniProt Q8TEK3); experiment: Off-target methyltransferase profiling (MTase-Glo); type: biochemical
Experimental: as §1, §2

EZH2 [Y641H] = EZH2 [Y641H] (Homo sapiens, UniProt Q15910, Y641H); experiment: Off-target methyltransferase profiling (MTase-Glo); type: biochemical
Experimental: as §1, §2

NSD3 = NSD3 (Homo sapiens, UniProt Q9BZ95); experiment: Off-target methyltransferase profiling (MTase-Glo); type: biochemical
Chain of NSD3 (Q9BZ95 whole entry, species assumed): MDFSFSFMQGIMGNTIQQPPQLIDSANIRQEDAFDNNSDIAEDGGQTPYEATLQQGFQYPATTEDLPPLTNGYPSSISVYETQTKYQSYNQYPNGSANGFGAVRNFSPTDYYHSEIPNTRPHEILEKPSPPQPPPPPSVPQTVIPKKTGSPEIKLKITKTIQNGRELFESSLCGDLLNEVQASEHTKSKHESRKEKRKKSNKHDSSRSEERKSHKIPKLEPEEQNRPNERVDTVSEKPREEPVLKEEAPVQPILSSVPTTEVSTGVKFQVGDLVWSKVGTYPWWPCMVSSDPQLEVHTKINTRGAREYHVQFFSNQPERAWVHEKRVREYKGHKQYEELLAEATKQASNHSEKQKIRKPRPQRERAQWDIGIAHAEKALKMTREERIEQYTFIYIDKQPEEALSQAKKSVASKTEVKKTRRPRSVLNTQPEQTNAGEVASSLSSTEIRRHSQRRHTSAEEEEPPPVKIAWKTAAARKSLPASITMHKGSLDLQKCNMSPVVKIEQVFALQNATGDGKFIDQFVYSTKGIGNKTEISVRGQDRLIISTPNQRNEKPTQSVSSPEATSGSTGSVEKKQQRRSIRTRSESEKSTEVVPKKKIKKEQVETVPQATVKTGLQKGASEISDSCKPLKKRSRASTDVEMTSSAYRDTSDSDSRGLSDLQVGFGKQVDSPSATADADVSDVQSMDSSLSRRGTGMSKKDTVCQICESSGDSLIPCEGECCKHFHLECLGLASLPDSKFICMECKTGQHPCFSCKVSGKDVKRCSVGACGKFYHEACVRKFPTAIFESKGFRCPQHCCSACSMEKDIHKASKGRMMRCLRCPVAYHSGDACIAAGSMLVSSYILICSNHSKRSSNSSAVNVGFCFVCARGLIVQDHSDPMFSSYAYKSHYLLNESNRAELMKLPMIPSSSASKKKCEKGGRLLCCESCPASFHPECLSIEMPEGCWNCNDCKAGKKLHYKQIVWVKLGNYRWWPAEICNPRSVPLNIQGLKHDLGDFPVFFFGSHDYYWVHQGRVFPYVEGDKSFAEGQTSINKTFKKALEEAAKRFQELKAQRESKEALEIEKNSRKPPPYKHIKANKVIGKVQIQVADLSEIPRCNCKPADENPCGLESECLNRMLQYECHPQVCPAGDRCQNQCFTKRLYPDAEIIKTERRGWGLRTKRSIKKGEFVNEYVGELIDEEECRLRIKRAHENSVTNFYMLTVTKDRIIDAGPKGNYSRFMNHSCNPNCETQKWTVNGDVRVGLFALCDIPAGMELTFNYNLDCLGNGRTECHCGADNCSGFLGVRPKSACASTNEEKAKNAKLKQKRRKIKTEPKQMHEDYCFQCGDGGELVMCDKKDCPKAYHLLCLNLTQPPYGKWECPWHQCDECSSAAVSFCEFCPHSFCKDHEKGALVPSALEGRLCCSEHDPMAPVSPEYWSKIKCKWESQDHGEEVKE
Experimental: as §1, §2

METTL3/14 = METTL3/14 (Homo sapiens, UniProt Q86U44); experiment: Off-target methyltransferase profiling (MTase-Glo); type: biochemical
Experimental: as §1, §2

SETD1A = SETD1A (Homo sapiens, UniProt O15047); experiment: Off-target methyltransferase profiling (MTase-Glo); type: biochemical
Experimental: as §1, §2

PRMT8 = PRMT8 (Homo sapiens, UniProt Q9NR22); experiment: Off-target methyltransferase profiling (MTase-Glo); type: biochemical
Experimental: as §1, §2

EZH1 = EZH1 (Homo sapiens, UniProt Q92800); experiment: Off-target methyltransferase profiling (MTase-Glo); type: biochemical
Experimental: as §1, §2

NSD2 = NSD2 (Homo sapiens, UniProt O96028); experiment: Off-target methyltransferase profiling (MTase-Glo); type: biochemical
Chain of NSD2 (O96028 whole entry, species assumed): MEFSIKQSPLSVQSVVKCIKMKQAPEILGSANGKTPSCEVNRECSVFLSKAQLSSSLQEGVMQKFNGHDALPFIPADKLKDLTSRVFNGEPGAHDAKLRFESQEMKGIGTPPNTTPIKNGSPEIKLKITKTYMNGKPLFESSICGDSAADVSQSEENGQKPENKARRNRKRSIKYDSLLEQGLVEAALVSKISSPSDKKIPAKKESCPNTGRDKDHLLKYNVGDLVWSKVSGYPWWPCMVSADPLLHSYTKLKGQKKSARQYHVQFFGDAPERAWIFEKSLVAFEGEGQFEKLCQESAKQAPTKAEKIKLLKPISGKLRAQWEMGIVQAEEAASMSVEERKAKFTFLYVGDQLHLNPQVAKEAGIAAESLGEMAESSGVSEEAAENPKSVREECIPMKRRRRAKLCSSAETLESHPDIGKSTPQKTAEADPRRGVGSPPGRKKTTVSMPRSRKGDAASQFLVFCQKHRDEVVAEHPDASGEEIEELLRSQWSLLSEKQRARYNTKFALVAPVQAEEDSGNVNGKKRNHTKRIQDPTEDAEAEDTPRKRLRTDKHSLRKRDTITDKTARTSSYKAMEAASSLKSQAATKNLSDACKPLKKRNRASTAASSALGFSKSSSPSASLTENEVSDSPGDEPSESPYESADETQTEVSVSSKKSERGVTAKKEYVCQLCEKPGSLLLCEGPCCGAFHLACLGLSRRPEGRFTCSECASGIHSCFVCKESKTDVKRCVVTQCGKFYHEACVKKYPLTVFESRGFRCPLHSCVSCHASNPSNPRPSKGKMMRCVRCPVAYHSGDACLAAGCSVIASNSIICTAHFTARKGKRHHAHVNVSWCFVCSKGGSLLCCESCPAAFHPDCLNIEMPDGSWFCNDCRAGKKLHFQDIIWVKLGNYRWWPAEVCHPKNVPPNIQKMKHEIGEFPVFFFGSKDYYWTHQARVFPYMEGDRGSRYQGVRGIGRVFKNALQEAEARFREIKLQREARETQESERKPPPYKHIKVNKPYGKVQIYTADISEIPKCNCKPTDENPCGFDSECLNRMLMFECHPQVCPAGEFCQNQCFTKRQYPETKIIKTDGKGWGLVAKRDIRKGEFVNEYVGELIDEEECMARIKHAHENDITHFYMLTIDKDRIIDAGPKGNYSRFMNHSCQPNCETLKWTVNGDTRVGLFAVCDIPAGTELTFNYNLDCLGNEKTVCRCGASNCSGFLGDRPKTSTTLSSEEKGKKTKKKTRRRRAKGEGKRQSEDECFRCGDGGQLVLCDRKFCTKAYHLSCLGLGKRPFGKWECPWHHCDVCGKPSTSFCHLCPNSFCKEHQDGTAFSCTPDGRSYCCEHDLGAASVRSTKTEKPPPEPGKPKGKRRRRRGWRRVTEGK
Experimental: as §1, §2

G9A = G9A (Homo sapiens, UniProt Q96KQ7); experiment: Off-target methyltransferase profiling (MTase-Glo); type: biochemical
Experimental: as §1, §2

SMYD2 = SMYD2 (Homo sapiens, UniProt Q9NRG4); experiment: Off-target methyltransferase profiling (MTase-Glo); type: biochemical
Experimental: as §1, §2

NSD1 = NSD1 (Homo sapiens, UniProt Q96L73); experiment: Off-target methyltransferase profiling (MTase-Glo); type: biochemical
Experimental: as §1, §2

SUV420H1 = SUV420H1 (Homo sapiens, UniProt Q4FZB7); experiment: Off-target methyltransferase profiling (MTase-Glo); type: biochemical
Experimental: as §1, §2

MLL3 = MLL3 (Homo sapiens, UniProt Q8NEZ4); experiment: Off-target methyltransferase profiling (MTase-Glo); type: biochemical
Experimental: as §1, §2

PRMT6 = PRMT6 (Homo sapiens, UniProt Q96LA8); experiment: Off-target methyltransferase profiling (MTase-Glo); type: biochemical
Experimental: as §1, §2

GLP = GLP (Homo sapiens, UniProt Q9H9B1); experiment: Off-target methyltransferase profiling (MTase-Glo); type: biochemical
Chain of GLP (Q9H9B1 whole entry): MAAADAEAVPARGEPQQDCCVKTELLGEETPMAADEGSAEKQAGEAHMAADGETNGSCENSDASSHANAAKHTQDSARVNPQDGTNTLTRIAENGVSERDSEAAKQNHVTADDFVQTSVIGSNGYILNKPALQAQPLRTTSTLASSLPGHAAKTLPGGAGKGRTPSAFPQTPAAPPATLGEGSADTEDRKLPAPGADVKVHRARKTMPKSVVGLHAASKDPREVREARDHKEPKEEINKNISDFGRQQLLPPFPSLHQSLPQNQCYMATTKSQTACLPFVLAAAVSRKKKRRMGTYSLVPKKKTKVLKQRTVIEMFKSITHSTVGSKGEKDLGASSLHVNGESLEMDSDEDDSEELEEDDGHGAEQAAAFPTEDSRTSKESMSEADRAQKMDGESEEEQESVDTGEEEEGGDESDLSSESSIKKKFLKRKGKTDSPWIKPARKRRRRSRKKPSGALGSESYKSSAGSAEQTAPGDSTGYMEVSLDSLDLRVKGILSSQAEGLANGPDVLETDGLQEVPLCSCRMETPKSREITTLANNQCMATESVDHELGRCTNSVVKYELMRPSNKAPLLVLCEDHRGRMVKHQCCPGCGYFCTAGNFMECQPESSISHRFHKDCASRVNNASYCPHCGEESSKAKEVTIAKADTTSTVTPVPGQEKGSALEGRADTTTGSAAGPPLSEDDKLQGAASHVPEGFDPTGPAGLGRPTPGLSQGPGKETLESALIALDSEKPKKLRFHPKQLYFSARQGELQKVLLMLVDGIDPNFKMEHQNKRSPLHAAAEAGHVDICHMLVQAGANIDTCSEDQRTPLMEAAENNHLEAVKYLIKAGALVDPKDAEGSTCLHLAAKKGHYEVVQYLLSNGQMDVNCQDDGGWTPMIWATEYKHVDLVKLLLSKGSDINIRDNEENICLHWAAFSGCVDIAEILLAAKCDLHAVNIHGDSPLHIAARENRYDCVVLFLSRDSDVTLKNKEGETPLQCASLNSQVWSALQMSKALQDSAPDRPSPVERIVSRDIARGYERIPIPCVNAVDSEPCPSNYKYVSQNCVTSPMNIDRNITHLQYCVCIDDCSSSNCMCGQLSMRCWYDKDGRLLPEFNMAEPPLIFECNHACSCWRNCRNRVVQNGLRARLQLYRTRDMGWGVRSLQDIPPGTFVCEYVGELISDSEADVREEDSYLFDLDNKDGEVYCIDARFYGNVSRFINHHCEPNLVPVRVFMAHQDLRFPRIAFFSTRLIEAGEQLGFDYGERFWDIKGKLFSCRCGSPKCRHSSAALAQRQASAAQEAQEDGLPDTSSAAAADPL
Experimental: as §1, §2

MKN45 and AGS cells = experiment: Colony formation assay; type: cell-based; settings: 10 and 20 µM
Experimental: Cells (1000 cells/well) were seeded in six‐well plates and provided with fresh culture medium every 3 days. After 14 days of incubation, the medium was removed, and the cells were gently washed three times with room‐temperature PBS. The cells were then fixed with 1 mL of 4% paraformaldehyde per well for 15 min. Next, 1 mL of 0.1% crystal violet solution was added to each well and incubated for 10 min to stain the cells. The crystal violet solution was drained, and the wells were rinsed with running water to remove excess stain, followed by air drying and photography.

## Cc1ccc(Nc2ncc3c(n2)N(C)C(=O)N(c2cccc(N)c2)C3)cn1 [LZQ-02-023-01, Three‐(3‐aminophenyl)‐1‐methyl‐7‐((6‐methylpyridin‐3‐yl)amino)‐3,4‐dihydropyrimido [4,5‐d] pyrimidin‐2 (1H)‐one]
SUV39H2
  IC50: 11 µM
EZH2 [Y641F]
  IC50: 2.94 µM
SETD2
  IC50: 18.6 µM
PRMT5+MTA
  IC50: 13.9 µM
PRMT5
  IC50: 13 µM
PRMT1
  IC50: 19.7 µM
PRMT4
  IC50: 19.2 µM
DNMT1
  IC50: 23.8 µM
SETD1B
  IC50: 8.97 µM
EZH2 [Y641N]
  IC50: 12.4 µM
SUV39H1
  IC50: 18.6 µM
EZH2
  IC50: 14.7 µM
EZH2 [A677G]
  IC50: 13.7 µM
EZH2 [A738T]
  IC50: 7.47 µM
DOT1L
  IC50: 13.1 µM
EZH2 [Y641H]
  IC50: 3.46 µM
NSD3
  IC50: 7.36 µM
METTL3/14
  IC50: 16.8 µM
SETD1A
  IC50: 18.8 µM
PRMT8
  IC50: 26.9 µM
EZH1
  IC50: 28.9 µM
NSD2
  IC50: 9.53 µM
G9A
  IC50: 39.1 µM
SMYD2
  IC50: 9.07 µM
NSD1
  IC50: 13.3 µM
SUV420H1
  IC50: 13.3 µM
MLL3
  IC50: 9.47 µM
PRMT6
  IC50: 11 µM
GLP
  IC50: 23.9 µM
MKN45 and AGS cells
  GC cell proliferation (colony formation): significantly inhibited
